Laboratory results: ChEMBL document CHEMBL3879895, “Compositions and methods for treating ocular edema, neovascularization and related diseases” (2014)
Activity calls are given as the source filed them. The rule behind the calls is not given here.

System: Mus musculus
Assay: Reduction of neovascular tufts in retina of rhodopsin/VEGF transgenic mouse at 3 to 10 mg/kg, sc bid administered for 7 days started on post natal day 14 measured on post natal day 21 by FITC-conjugated GSA-lectin staining-based fluorescence microscopy
Type: functional, organism-based

**Q.** Which Activity does the source give for `COC(=O)N[C@@H](Cc1ccccc1)C(=O)N[C@@H](Cc1ccc(NS(=O)(=O)O)cc1)c1csc(-c2csc(-c3cccs3)n2)n1` here?
**A.** Active
